From ChEMBL document CHEMBL1201862, “PubChem BioAssay data set” (2004)
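Exposure lasted 48 hours, with cells grown in 96-well plates and compounds tested at five concentrations. Here, GI50 denotes the concentration required for 50% inhibition of growth.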 Activity calls are given as the source filed them. Cut-off read from the data, not from the text of the source: active = GI50 up to about 1.1 µM and inactive = higher.

Experiments:
Test in all cases: growth of human tumour cells (NCI), 48 h
[1] = test system: 786-0
[2] = test system: BT-549
[3] = test system: COLO 205
[4] = test system: HCC 2998
[5] = test system: HCT-116
[6] = test system: K562
[7] = test system: MCF7
[8] = test system: MDA-MB-435
[9] = test system: MDA-N
[10] = test system: Malme-3M
[11] = test system: NCI-H460
[12] = test system: NCI/ADR-RES
[13] = test system: OVCAR-4
[14] = test system: OVCAR-8
[15] = test system: RXF 393
[16] = test system: SF-539
[17] = test system: SK-MEL-2
[18] = test system: SK-OV-3
[19] = test system: SN12C
[20] = test system: SR

| Compound | GI50 [1] | GI50 [2] | GI50 [3] | GI50 [4] | GI50 [5] | GI50 [6] | GI50 [7] | GI50 [8] | GI50 [9] | GI50 [10] | GI50 [11] | GI50 [12] | GI50 [13] | GI50 [14] | GI50 [15] | GI50 [16] | GI50 [17] | GI50 [18] | GI50 [19] | GI50 [20] |
| --- | --- | --- | --- | --- | --- | --- | --- | --- | --- | --- | --- | --- | --- | --- | --- | --- | --- | --- | --- | --- |
| O=[N+]([O-])/C(Cl)=C(/C(Cl)=C(Cl)Cl)N1CCOCC1 | 2.92 µM (inactive) | 2.46 µM (inactive) | 2.54 µM (inactive) | 3.09 µM (inactive) | 2.44 µM (inactive) | 3.18 µM (inactive) | 1.12 µM (active) | 2.28 µM (inactive) | 2.32 µM (inactive) | 1.44 µM (inactive) | 4.33 µM (inactive) | 3.29 µM (inactive) | 5.51 µM (inactive) | 2.56 µM (inactive) | 2.61 µM (inactive) | 3.12 µM (inactive) | 2.12 µM (inactive) | 13.8 µM (inactive) | 7.43 µM (inactive) | 2.21 µM (inactive) |
| Brc1ccccc1/C=C\C1(c2ccccc2)OCCO1 | 11.6 µM (inactive) | 18.3 µM (inactive) | 19.6 µM (inactive) | 15.7 µM (inactive) | 4.98 µM (inactive) | 1.01 µM (active) | 4 µM (inactive) | 11.7 µM (inactive) | 12.3 µM (inactive) | 15.9 µM (inactive) | 14.1 µM (inactive) | 10.9 µM (inactive) | 4.26 µM (inactive) | 9.23 µM (inactive) | 13.9 µM (inactive) | 10.4 µM (inactive) | 23 µM (inactive) | 13.6 µM (inactive) | 14.1 µM (inactive) | 0.692 µM (active) |
| C=C1CN(Cc2ccccc2)[C@@H]2CCCCC[C@H](C#N)[C@H]12 | > 100 µM (inactive) | > 100 µM (inactive) | > 100 µM (inactive) | > 100 µM (inactive) | > 72.4 µM (inactive) | 47.2 µM (inactive) | > 100 µM (inactive) | > 76 µM (inactive) | > 100 µM (inactive) | > 100 µM (inactive) | > 78.2 µM (inactive) | > 77.4 µM (inactive) | > 100 µM (inactive) | > 68.4 µM (inactive) | > 60.8 µM (inactive) | > 100 µM (inactive) | > 100 µM (inactive) | > 86.9 µM (inactive) | > 100 µM (inactive) | > 47.8 µM (inactive) |
| COC(=O)/C(C#N)=C(\Nc1ccccc1)N1CCCCC1 | > 100 µM (inactive) | > 100 µM (inactive) | > 100 µM (inactive) | > 100 µM (inactive) | > 100 µM (inactive) | > 100 µM (inactive) | > 100 µM (inactive) | > 100 µM (inactive) | > 100 µM (inactive) | > 100 µM (inactive) | > 100 µM (inactive) | > 100 µM (inactive) | > 100 µM (inactive) | > 100 µM (inactive) | > 100 µM (inactive) | > 100 µM (inactive) | > 100 µM (inactive) | > 100 µM (inactive) | > 100 µM (inactive) | > 100 µM (inactive) |
| Brc1c(C#CCC(c2ccccc2)(c2ccccc2)c2ccccc2)ccc(C#CCC(c2ccccc2)(c2ccccc2)c2ccccc2)c1Br | > 100 µM (inactive) | > 100 µM (inactive) | > 100 µM (inactive) | > 100 µM (inactive) | > 100 µM (inactive) | > 100 µM (inactive) | > 100 µM (inactive) | > 100 µM (inactive) | > 100 µM (inactive) | > 100 µM (inactive) | > 100 µM (inactive) | > 100 µM (inactive) | > 100 µM (inactive) | > 100 µM (inactive) | > 100 µM (inactive) | > 100 µM (inactive) | > 100 µM (inactive) | > 100 µM (inactive) | > 100 µM (inactive) | > 100 µM (inactive) |
